The subject of data set [1] is U937 cells (monocytic cell line). Put plainly: Cell proliferation inhibition assay (WST-1), U937. As to conditions: for IC50: Homo sapiens, U-937, read-out: Cell proliferation IC50 nM (U937 cells); for selectivity between a monocytic and non-monocytic cell line (cell proliferation): U937 versus HCT116. In kind it is cell-based. How it is done: (§1) Following 24 h of growth cells were treated with compound. Plates were then re-incubated for a further 72-96 h before a WST-1 cell viability assay was conducted according to the suppliers (Roche Applied Science) instructions.
(§2) Data were expressed as a percentage inhibition of the control, measured in the absence of inhibitor, as follows: —
(§3) where S^i is the signal in the presence of inhibitor and S^o is the signal in the presence of DMSO.
(§4) Dose response curves were generated from 8 concentrations (top final concentration 10 μM, with 3-fold dilutions), using 6 replicates.
(In general: Tetrazolium dyes change colour on reduction, which living cells bring about.)

The subject of data set [2] is HCT116 (non-monocytic cell line). The data set is described as follows: Cell proliferation inhibition assay (WST-1), HCT116. Format: cell-based. As to conditions: for Ratio IC50 cell/enzyme: HCT116 cell proliferation IC50 / DHFR enzyme IC50; for IC50: Homo sapiens, HCT-116, HCT116 non-monocytic cell line, read-out: Cell proliferation IC50 nM (HCT116). On the procedure:
as §1, §2, §3, §4

In data set [3] the test system is carboxylesterase (U937 cell extract). The data set is described as follows: Broken cell carboxylesterase assay, U937 cell extract. In kind it is in vitro ADME. As to conditions: U937 versus HCT116. How it is done: U937 or HCT 116 tumour cells (˜10^9) were washed in 4 volumes of Dulbeccos PBS (˜1 litre) and pelleted at 525 g for 10 min at 4° C. This was repeated twice and the final cell pellet was resuspended in 35 ml of cold homogenising buffer (Trizma 10 mM, NaCl 130 mM, CaCl2 0.5 mM pH 7.0 at 25° C.). Homogenates were prepared by nitrogen cavitation (700 psi for 50 min at 4° C.). The homogenate was kept on ice and supplemented with a cocktail of inhibitors at final concentrations of: • Leupeptin 1 μM • Aprotinin 0.1 μM • E64 8 μM • Pepstatin 1.5 μM • Bestatin 162 μM • Chymostatin 33 μM
After clarification of the cell homogenate by centrifugation at 525 g for 10 min, the resulting supernatant was used as a source of esterase activity and was stored at −80° C. until required.
Hydrolysis of esters to the corresponding carboxylic acids can be measured using the cell extract, prepared as above. To this effect cell extract (˜30 μg/total assay volume of 0.5 ml) was incubated at 37° C. in a Tris-HCl 25 mM, 125 mM NaCl buffer, pH 7.5 at 25° C. At zero time the ester (substrate) was then added at a final concentration of 2.5 μM and the samples were incubated at 37° C. for the appropriate time (usually 0 or 80 min). […] After centrifugation at 12000 g for 5 min, samples were analysed for the ester and its corresponding carboxylic acid at room temperature by LCMS (Sciex API 3000, HP1100 binary pump, CTC PAL). […]

The test system of data set [4] is HDAC - Hela cell nuclear extract. Put plainly: Histone deacetylase inhibitory activity assay (Fluor de Lys). The conditions noted are these: read-out: Enzyme inhibition IC50 nM (HDAC - Hela cell nuclear extract). In kind it is biochemical. How it is done:
The ability of compounds to inhibit histone deacetylase activities was measured using the commercially available HDAC fluorescent activity assay from Biomol. […] Histone deacetylase activity from crude nuclear extract derived from HeLa cells was used for screening. The preparation, purchased from 4C (Seneffe, Belgium), was prepared from HeLa cells harvested whilst in exponential growth phase. […] Acid. […] The final buffer composition was 20 mM Hepes, 100 mM KCl, 0.2 mM EDTA, 0.5 mM DTT, 0.2 mM PMSF and 20% (v/v) glycerol.

The next data set deals with T1, PI 3-kinase γ (Homo sapiens, UniProt P48736).
T1 construct: recombinant N-terminally His6-tagged, full length human enzyme; His6 (N); purchased Upstate (Dundee, UK), assay run by the vendor; host or cells: baculovirus / Sf21 insect cells
The data set is described as follows: PI 3-kinase γ inhibition assay (HTRF). Format: biochemical. The conditions noted are these: 100 μM MgATP; read-out: Enzyme inhibition IC50 nM (PI3-Kinase). An excerpt:
The measurement of PI 3-kinase γ activity is dependent upon the specific and high affinity binding of the GRP1 pleckstrin homology (PH) domain to PIP3, the product of PI 3-kinase activity. A complex is formed between europium-labelled anti-GST monoclonal antibody, a GST-tagged GRP1 PH domain, biotinylated PIP3 and streptavidin-allophycocyanin (APC). This complex generates a stable time-resolved fluorescence resonance energy transfer (FRET) signal, which is diminished by competition of PIP3, generated in the PI 3-kinase assay, with the biotinylated PIPS.
The reaction was initiated by the addition of the MgATP mix. After incubation for 30 minutes at room temperature, the reaction was stopped by the addition of 5 μl of stop solution containing EDTA and biotinylated phosphatidylinositol-3,4,5-trisphosphate. Finally, 5 μl of detection buffer was added, which contained europium-labelled anti-GST monoclonal antibody, GST-tagged GRP1 PH domain and streptavidin-APC. The plate was then read in time-resolved fluorescence mode and the homogenous time-resolved fluorescence (HTRF) signal was determined according to the formula HTRF=10000×(Em665 nm/Em620 nm).
Duplicate data points were generated from a ½ log dilution series of a stock solution of compound in DMSO. Nine dilutions steps were made from a top final concentration of 10 μM, and a ‘no compound’ blank was included. HTRF ratio data were transformed into % activity of controls and analysed with a four parameter sigmoidal dose-response (variable slope) application. The concentration giving 50% inhibition (1050) was determined.

Data set [5] relates to TNFα production in human whole blood. The data set is described as follows: LPS-stimulation of human whole blood, TNF-α ELISA. The conditions noted are these: for IC50: Homo sapiens, LPS 100 ng/ml, 6 h, read-out: Inhibition of TNFα production in human whole blood IC50; for Ratio IC50 WB/enzyme: whole blood TNFα IC50 / PI3-Kinase IC50. Format: cell-based. On the procedure: Whole blood was taken by venous puncture using heparinised vacutainers (Becton Dickinson) and diluted in an equal volume of RPMI1640 tissue culture media. 100 μl was plated in V-bottomed 96 well tissue culture plates. Inhibitor was added in 100 μl of RPMI1640 media, and 2 h later the blood was stimulated with LPS (E coli strain 005:B5, Sigma) at a final concentration of 100 ng/ml and incubated at 37° C. in 5% CO2 for 6 h. TNF-α levels were measured from cell-free supernatants by sandwich ELISA (R&D Systems #QTA00B).
For orientation: In an ELISA, binding on a coated surface is turned into a signal by an enzyme label.

Setting [6] is: U937 cell proliferation IC50 / DHFR enzyme IC50.

T1 sequence (P48736 whole entry): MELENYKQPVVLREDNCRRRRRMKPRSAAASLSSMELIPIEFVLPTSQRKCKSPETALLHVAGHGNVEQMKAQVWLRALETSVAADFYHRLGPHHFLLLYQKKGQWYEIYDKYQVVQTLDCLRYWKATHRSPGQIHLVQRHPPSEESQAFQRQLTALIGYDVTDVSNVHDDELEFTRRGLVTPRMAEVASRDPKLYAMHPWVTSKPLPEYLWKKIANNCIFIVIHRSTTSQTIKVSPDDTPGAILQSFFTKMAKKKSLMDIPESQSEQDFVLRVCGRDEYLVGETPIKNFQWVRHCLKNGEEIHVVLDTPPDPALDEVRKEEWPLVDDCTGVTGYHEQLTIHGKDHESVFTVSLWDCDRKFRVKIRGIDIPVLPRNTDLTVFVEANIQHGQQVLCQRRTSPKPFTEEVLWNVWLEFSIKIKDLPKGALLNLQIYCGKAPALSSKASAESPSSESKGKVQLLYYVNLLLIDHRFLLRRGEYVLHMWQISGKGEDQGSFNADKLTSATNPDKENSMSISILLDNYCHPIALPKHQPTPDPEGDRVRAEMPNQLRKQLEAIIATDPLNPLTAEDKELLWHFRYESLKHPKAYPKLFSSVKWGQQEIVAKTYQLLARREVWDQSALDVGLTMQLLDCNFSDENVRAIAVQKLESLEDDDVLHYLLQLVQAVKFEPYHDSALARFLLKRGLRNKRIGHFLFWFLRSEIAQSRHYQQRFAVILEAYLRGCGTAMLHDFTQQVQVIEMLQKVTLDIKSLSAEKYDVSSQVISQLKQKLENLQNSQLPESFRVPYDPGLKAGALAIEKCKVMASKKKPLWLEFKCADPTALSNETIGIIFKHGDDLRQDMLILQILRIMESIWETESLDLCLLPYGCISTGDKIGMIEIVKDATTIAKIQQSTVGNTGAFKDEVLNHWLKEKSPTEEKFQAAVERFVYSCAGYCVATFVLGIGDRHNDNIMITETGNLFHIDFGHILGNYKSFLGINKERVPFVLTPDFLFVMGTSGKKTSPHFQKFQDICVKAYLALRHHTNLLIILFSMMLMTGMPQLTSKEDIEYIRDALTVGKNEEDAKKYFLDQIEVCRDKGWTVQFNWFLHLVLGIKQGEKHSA

With `Cc1c(CNc2ccc(OCC[C@H](NC3CCCCC3)C(=O)OC3CCCC3)cc2)cnc2nc(N)nc(N)c12` [Compound 4, (S)-2-Cyclohexylamino-4-{4-[(2,4-diamino-5-methyl-pyrido[2,3-d]pyrimidin-6-ylmethyl)-amino]-phenoxy}-butyric acid cyclopentyl ester], the IC50 stood at 310 nM in data set [1] (U937 monocytic cell line) and 6900 nM in data set [2]. The figures for the “Ratio IC50 cell/enzyme” value in data set [1] (setting [6]) and in data set [2] were 0.3 and 6.6, respectively. The “selectivity between a monocytic and non-monocytic cell line (cell proliferation)” value in data set [1] is reported as “significantly more anti-proliferative in monocytic cell lines then non-monocytic cell lines”. The “cleavage of ester in monocytic versus non-monocytic cell lines” value in data set [3] is “selective cleavage in monocytic but not non-monocytic cell lines”.
As for `Cc1c(CNc2ccc(CN[C@@H](CC(C)C)C(=O)OC3CCCC3)cc2)cnc2nc(N)nc(N)c12` [Compound 5, (S)-2-{4-[(2,4-Diamino-5-methyl-pyrido[2,3-d]pyrimidin-6-ylmethyl)-amino]-benzylamino}-4-methyl-pentanoic acid cyclopentyl ester], the IC50 in data set [1] (U937 monocytic cell line) was found to be 310 nM; in data set [2], 6700 nM. In addition, the “Ratio IC50 cell/enzyme” value in data set [1] (setting [6]) is 0.8; in data set [2], 1.7. Besides, in data set [1], the “selectivity between a monocytic and non-monocytic cell line (cell proliferation)” value was “significantly more anti-proliferative in monocytic cell lines then non-monocytic cell lines”. The “cleavage of ester in monocytic versus non-monocytic cell lines” value in data set [3] was “selective cleavage in monocytic but not non-monocytic cell lines”.
Turning to `O=C(CCCCCCC(=O)Nc1cccc(CN[C@H](C(=O)OC2CCCC2)c2ccccc2)c1)NO` [Compound 8, (S)-[3-(7-Hydroxycarbamoyl-heptanoylamino)-benzylamino]-phenyl-acetic acid cyclopentyl ester], the IC50 in data set [4] amounted to 100 nM; in data set [1] (U937 monocytic cell line), 50 nM. In data set [1] (U937 cell proliferation IC50 / HDAC enzyme IC50), the “Ratio IC50 cell/enzyme” value is recorded as 0.5.
Regarding `O=C(CCCCCCC(=O)Nc1cccc(CN[C@H](C(=O)O)c2ccccc2)c1)NO` [Compound 9, (S)-[3-(7-Hydroxycarbamoyl-heptanoylamino)-benzylamino]-phenyl-acetic acid], the IC50 in data set [4] was 70 nM. In data set [1] (U937 monocytic cell line), the “Cell proliferation IC50 nM (U937 cells)” value is reported as “Inactive”.
Regarding `CC(=O)Nc1nc(C)c(-c2ccc(Cl)c(S(C)(=O)=O)c2)s1` [Compound 20, N-[5-(4-Chloro-3-methanesulfonyl-phenyl)-4-methyl-thiazol-2-yl]-acetamide, reference compound], at PI 3-kinase γ, the IC50 was 500 nM. In addition, in data set [5], the IC50 worked out at 8500 nM and the “Ratio IC50 WB/enzyme” value was determined as 17.
Turning to `Cc1nc(NC(=O)CC[C@H](N)C(=O)OC2CCCC2)sc1-c1ccc(Cl)c(S(C)(=O)=O)c1` [Compound 21, (S)-2-Amino-4-[5-(4-chloro-3-methanesulfonyl-phenyl)-4-methyl-thiazol-2-ylcarbamoyl]-butyric acid cyclopentyl ester], the IC50 at PI 3-kinase γ amounted to 2700 nM. Further, in data set [5], the IC50 amounted to 400 nM and the “Ratio IC50 WB/enzyme” value is reported as 0.15.
Take `Cc1nc(NC(=O)CC[C@H](N)C(=O)O)sc1-c1ccc(Cl)c(S(C)(=O)=O)c1` [Compound 22, (S)-2-Amino-4-[5-(4-chloro-3-methanesulfonyl-phenyl)-4-methyl-thiazol-2-ylcarbamoyl]-butyric acid]: at PI 3-kinase γ, the IC50 was 3600 nM.
With `Cc1nc(NC(=O)CC[C@H](N)C(=O)OC(C)(C)C)sc1-c1ccc(Cl)c(S(C)(=O)=O)c1` [Compound 23, (S)-2-Amino-4-[5-(4-chloro-3-methanesulfonyl-phenyl)-4-methyl-thiazol-2-ylcarbamoyl]-butyric acid tert-butyl ester], the results for the IC50 (on PI 3-kinase γ; in data set [5]) were 7100 nM and 5200 nM, respectively. In addition, in data set [5], the “Ratio IC50 WB/enzyme” value came to 0.75.

These data come from patent US20150126534A1, “ENZYME AND RECEPTOR MODULATION” (Chroma Therapeutics Ltd, priority 2005, published 2015).
